{"source": "patent US8394814B2", "about": "“Method of purifying crude noscapine” (priority 2008, dated 2013)", "key": {"[1]": {"format": "physicochemical", "details": "for Solubility: room temperature; for Reduction of the solubility of noscapine by adding an equal amount of water: Table 1 compared with Table 2", "protocol": "Noscapine solubility was also determined at room temperature for the following solvent mixtures, mixed in a roughly 1:1 ratio by weight: acetone:water, acetonitrile:water, chloroform:ethanol, toluene:ethanol. Solubilities were determined using methods similar to those described above, and the measured solubilities are summarized in Table 2."}, "[2]": {"format": "physicochemical", "details": "for Solubility: neutral pH", "protocol": "To determine the solubility of noscapine in a variety of different solvents at neutral pH, the following experiment was conducted. Noscapine solubility was determined at ambient temperature (22° C.-23° C.) and at 50° C. by dissolving noscapine and noting the amount dissolved prior to saturation for the following solvents: acetone, acetonitrile, ethanol, isopropanol, methanol, pentanol, toluene, and water."}, "[3]": {"format": "physicochemical", "protocol": "To characterize the solubility of noscapine in acetonitrile/water systems, the following experiment was conducted. […] The results of the solubility measurements are summarized in Table 3 and are summarized in a graph in FIG. 8."}}, "note": "Like-named read-outs stand apart in the source and are kept apart here."}
{"smiles": "COc1ccc2c(c1OC)C(=O)O[C@@H]2[C@H]1c2c(cc3c(c2OC)OCO3)CCN1C", "note": "[noscapine]", "values": [{"measurement": "Solubility", "setting": "[1]; Acetone 49.4% / Water 50.6% by weight", "value": "3.21 mg noscapine/g of solvent"}, {"measurement": "Solubility", "setting": "[1]; Acetonitrile 48.6% / Water 51.4% by weight", "value": "1.06 mg noscapine/g of solvent"}, {"measurement": "Solubility", "setting": "[1]; Chloroform 50.0% / Ethanol 50.0% by weight", "value": "73.34 mg noscapine/g of solvent"}, {"measurement": "Solubility", "setting": "[1]; Toluene 51.0% / Ethanol 49.0% by weight", "value": "37.21 mg noscapine/g of solvent"}, {"measurement": "Reduction of the solubility of noscapine by adding an equal amount of water", "setting": "[1]; second solvent of 'acetone and water' as printed", "value": "about 98%"}, {"measurement": "Reduction of the solubility of noscapine by adding an equal amount of water", "setting": "[1]; solvent acetone", "value": "about 95%"}, {"measurement": "Solubility", "setting": "[2]; Acetone, 23° C.", "value": "68.56 mg of noscapine/g of solvent"}, {"measurement": "Solubility", "setting": "[2]; Acetone, 50° C.", "value": "145.98 mg of noscapine/g of solvent"}, {"measurement": "Solubility", "setting": "[2]; Acetonitrile, 23° C.", "value": "52.33 mg of noscapine/g of solvent"}, {"measurement": "Solubility", "setting": "[2]; Acetonitrile, 50° C.", "value": "151.21 mg of noscapine/g of solvent"}, {"measurement": "Solubility", "setting": "[2]; Chloroform, 23° C.", "value": "504.11 mg of noscapine/g of solvent"}, {"measurement": "Solubility", "setting": "[2]; Ethanol, 50° C.", "value": "5.90 mg of noscapine/g of solvent"}, {"measurement": "Solubility", "setting": "[2]; Isopropanol, 50° C.", "value": "12.99 mg of noscapine/g of solvent"}, {"measurement": "Solubility", "setting": "[2]; Methanol, 50° C.", "value": "1.81 mg of noscapine/g of solvent"}, {"measurement": "Solubility", "setting": "[2]; Pentanol, 50° C.", "value": "12.29 mg of noscapine/g of solvent"}, {"measurement": "Solubility", "setting": "[2]; Toluene, 23° C.", "value": "40.65 mg of noscapine/g of solvent"}, {"measurement": "Solubility", "setting": "[2]; Toluene, 50° C.", "value": "59.99 mg of noscapine/g of solvent"}, {"measurement": "Solubility", "setting": "[2]; Water, 50° C.", "value": "0.82 mg of noscapine/g of solvent"}, {"measurement": "Solubility in words", "setting": "[2]; chloroform", "value": "highly soluble"}, {"measurement": "Solubility in words", "setting": "[2]; water", "value": "nearly insoluble"}, {"measurement": "Solubility", "setting": "[3]; 0% acetonitrile by weight in water, 50° C.", "value": "0.2 mg noscapine per gram of solve"}, {"measurement": "Solubility", "setting": "[3]; 0% acetonitrile by weight in water, 70° C.", "value": "0.2 mg noscapine per gram of solve"}, {"measurement": "Solubility", "setting": "[3]; 20% acetonitrile by weight in water, 50° C.", "value": "0.8 mg noscapine per gram of solve"}, {"measurement": "Solubility", "setting": "[3]; 20% acetonitrile by weight in water, 70° C.", "value": "1.4 mg noscapine per gram of solve"}, {"measurement": "Solubility", "setting": "[3]; 40% acetonitrile by weight in water, 50° C.", "value": "8.1 mg noscapine per gram of solve"}, {"measurement": "Solubility", "setting": "[3]; 40% acetonitrile by weight in water, 70° C.", "value": "6.7 mg noscapine per gram of solve"}, {"measurement": "Solubility", "setting": "[3]; 60% acetonitrile by weight in water, 50° C.", "value": "32.6 mg noscapine per gram of solve"}, {"measurement": "Solubility", "setting": "[3]; 60% acetonitrile by weight in water, 70° C.", "value": "46.3 mg noscapine per gram of solve"}, {"measurement": "Solubility", "setting": "[3]; 80% acetonitrile by weight in water, 50° C.", "value": "82.8 mg noscapine per gram of solve"}, {"measurement": "Solubility", "setting": "[3]; 80% acetonitrile by weight in water, 70° C.", "value": "181.9 mg noscapine per gram of solve"}, {"measurement": "Solubility", "setting": "[3]; 100% acetonitrile by weight, 50° C.", "value": "131.0 mg noscapine per gram of solve"}, {"measurement": "Solubility", "setting": "[3]; 100% acetonitrile by weight, 70° C.", "value": "226.5 mg noscapine per gram of solve"}, {"measurement": "Change of solubility in acetonitrile with temperature", "setting": "[3]; acetonitrile, temperature increased from 22° C. to 50° C.", "value": "more than doubles"}, {"measurement": "Increase of solubility in the acetonitrile/water mixture", "setting": "[3]; between 0° C. and 70° C., acetonitrile concentrations of about 50% or above", "value": "up to 10 fold"}, {"measurement": "Ratio of the solubility in pure acetonitrile to the solubility in pure water", "setting": "[3]; solvent temperature 0° C.", "value": "about 78"}, {"measurement": "Ratio of the solubility in pure acetonitrile to the solubility in pure water", "setting": "[3]; solvent temperature 70° C.", "value": "about 647"}]}
